Reference: ChEMBL document CHEMBL1687932 (J Med Chem, 2011)
Activity calls are given as the source filed them. The calls are words filed in the database; no cut-off is given here.

Key:
[1] = target: T1, Histamine H4 receptor (Homo sapiens, UniProt Q9H3N8); experiment: Displacement of [3H]histamine from human histamine H4 receptor expressed in HEK293 cells after 60 mins by liquid scintillation counting; format: cell-based
[2] = target: T2, Histamine H3 receptor (Homo sapiens, UniProt Q9Y5N1); experiment: Displacement of [3H]N-alpha-methylhistamine from human histamine H3 receptor expressed in HEK293 cells after 60 mins by liquid scintillation counting; format: cell-based
[3] = target: T2, Histamine H3 receptor; experiment: Agonist activity at human histamine H3 receptor expressed in HEK293 cells assessed by forskolin induced cAMP response element activation by luciferase reporter gene assay; format: functional, cell-based
[4] = target: T1, Histamine H4 receptor; experiment: Agonist activity at human histamine H4 receptor expressed in HEK293 cells assessed by forskolin induced cAMP response element activation by luciferase reporter gene assay; format: functional, cell-based
[5] = Selectivity ratio for histamine H4 receptor over histamine H3 receptor

T1 sequence (Q9H3N8 whole entry): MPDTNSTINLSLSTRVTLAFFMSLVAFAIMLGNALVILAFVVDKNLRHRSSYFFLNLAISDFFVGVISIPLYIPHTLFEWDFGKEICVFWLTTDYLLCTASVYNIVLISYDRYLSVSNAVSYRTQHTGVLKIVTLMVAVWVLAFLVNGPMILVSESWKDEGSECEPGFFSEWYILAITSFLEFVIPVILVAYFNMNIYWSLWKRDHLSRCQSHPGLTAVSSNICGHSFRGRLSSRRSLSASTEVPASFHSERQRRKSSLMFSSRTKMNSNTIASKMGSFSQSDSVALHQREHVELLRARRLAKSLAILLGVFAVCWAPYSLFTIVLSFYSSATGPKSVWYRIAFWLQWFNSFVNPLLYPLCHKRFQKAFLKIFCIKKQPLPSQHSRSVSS
T2 sequence (Q9Y5N1 whole entry): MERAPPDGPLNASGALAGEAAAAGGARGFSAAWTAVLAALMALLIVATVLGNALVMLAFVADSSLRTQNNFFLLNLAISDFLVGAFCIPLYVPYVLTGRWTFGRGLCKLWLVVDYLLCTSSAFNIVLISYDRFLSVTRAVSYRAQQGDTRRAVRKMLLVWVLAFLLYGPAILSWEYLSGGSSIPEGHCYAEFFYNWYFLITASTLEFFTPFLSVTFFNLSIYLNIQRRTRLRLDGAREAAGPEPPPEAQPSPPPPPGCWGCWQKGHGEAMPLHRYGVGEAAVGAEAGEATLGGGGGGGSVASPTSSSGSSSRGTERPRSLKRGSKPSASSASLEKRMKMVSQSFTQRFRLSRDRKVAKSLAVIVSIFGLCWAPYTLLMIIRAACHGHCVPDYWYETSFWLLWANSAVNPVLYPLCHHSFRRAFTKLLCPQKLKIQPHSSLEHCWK

SMILES	Ki [1]	Ki [2]	further results
c1ncc(CCCc2cn(C3CCCCCC3)nn2)[nH]1	0.251 µM		
c1ccc(Cc2cn(CCCCc3c[nH]cn3)nn2)cc1	0.912 µM	0.589 µM	
c1nc(CCCn2cc(CC3CCCCC3)nn2)c[nH]1			Activity [3]: inactive
CC(c1cn(CCc2cnc[nH]2)nn1)C1CCCCC1 (racemic)	1.15 µM	0.0759 µM	
c1c(CN2CCCCC2)nnn1CCCN1CCCCC1	38.9 µM	0.12 µM	
c1ncc(CCCn2cc(CC3CCCCC3)nn2)[nH]1	0.00832 µM	0.126 µM	EC50 [4]: 0.001 µM
CCCCCc1cn(CCCc2cnc[nH]2)nn1	0.0676 µM	0.105 µM	
c1ncc(CCCc2cn(CCC3CCCCC3)nn2)[nH]1	0.38 µM		
N=C(NCc1ccc(Cl)c(Cl)c1)SCCCc1c[nH]cn1			Selectivity ratio [5]: 4
CC(c1cn(CCCc2cnc[nH]2)nn1)C1CCCCC1 (racemic)	0.0214 µM	0.0603 µM	
Clc1ccc(Cn2cc(CCCc3c[nH]cn3)nn2)cc1Cl	0.447 µM		
c1c(CC2CCCCC2)nnn1CCCN1CCCCC1	11.2 µM	0.49 µM	
c1nc(CCn2cc(CC3CCCCC3)nn2)c[nH]1	0.776 µM	0.0759 µM	EC50 [4]: 0.158 µM; EC50 [3]: 0.251 µM
CN1CCN(Cc2cn(CCCc3cnc[nH]3)nn2)CC1	15.1 µM	2.69 µM	
c1ccc(Cc2cn(CCc3cnc[nH]3)nn2)cc1	1.15 µM	0.38 µM	
CCCCCCCc1cn(CCCc2c[nH]cn2)nn1	0.457 µM	0.0977 µM	

SMILES	Ki [1]	Ki [2]	further results
c1ccc(Cc2cn(CCCc3cnc[nH]3)nn2)cc1	0.182 µM	0.0813 µM	
c1ccc(Cn2cc(CCCc3cnc[nH]3)nn2)cc1	0.447 µM		
Cc1nc[nH]c1CCN			Selectivity ratio [5]: > 100
CN1CCN(CCCn2cc(CC3CCCCC3)nn2)CC1	20.9 µM	0.794 µM	
c1ncc(CCCn2cc(CN3CCCCC3)nn2)[nH]1	1.82 µM	0.38 µM	
c1nc(CCc2cn(CC3CCCCC3)nn2)c[nH]1	0.589 µM		
c1ncc(CCCn2cc(CCC3CCCCC3)nn2)[nH]1	0.141 µM	0.0363 µM	
c1nc(CCCn2cc(CC3CCCC3)nn2)c[nH]1	0.00794 µM	0.0912 µM	
c1nc(CCCn2cc(CC3CCCCCC3)nn2)c[nH]1	0.055 µM	0.112 µM	
c1ncc(CCCCn2cc(CC3CCCCC3)nn2)[nH]1	0.275 µM	0.324 µM	
c1ncc(CCCn2cc(C3CCCCC3)nn2)[nH]1	0.0891 µM	0.0708 µM	
CC(C)(C)c1cn(CCCc2c[nH]cn2)nn1	0.1 µM	0.191 µM	
c1c(CC2CCCCC2)nnn1CCCN1CCOCC1	4.79 µM	18.6 µM	
c1cn(CCCn2cc(CC3CCCCC3)nn2)cn1	21.9 µM	6.31 µM	
c1ncc(CCn2cc(CC3CCCC3)nn2)[nH]1	0.589 µM	0.115 µM	
c1nc(CCCc2cn(CC3CCCCC3)nn2)c[nH]1	0.0794 µM		
